# The source made the active and inactive calls. No cut-off for these calls is given here.
# Columns and labels:
# [1] = Cytotoxicity against human HBE cells assessed as inhibition of cell growth measured after 4 hrs by MTT assay; type: toxicity, cell-based
# [2] = system: Candida albicans; experiment: Antifungal activity against wild-type Candida albicans SC5314 assessed as inhibition of fungal growth measured after 24 hrs by CLSI based microtiter plate analysis; type: functional; details: for MIC80: Candida albicans
# [3] = Cytotoxicity against mouse L929 cells assessed as inhibition of cell growth measured after 4 hrs by MTT assay; type: toxicity, cell-based
# [4] = Induction of hemolysis in mouse RBC cells at 2 to 32 microg/ml incubated for 60 mins by absorbance based analysis; type: toxicity, cell-based, Erythrocyte; details: red blood cells (erythrocytes), at 2 to 32 µg/mL, dose 2-32 µg/ml, read-out: Activity
# [5] = system: Candida albicans; experiment: microbe, parasite or virus in culture; type: functional; details: DSY654, time 24 hrs
# Description: Antifungal activity against efflux pump-deficient Candida albicans DSY654 assessed as inhibition of fungal growth measured after 24 hrs by CLSI based microtiter plate analysis
# [6] = Drug accumulation in wild-type Candida albicans SC5314 at 20 microg/ml incubated for 2 hrs by flow cytometery analysis; type: ADME; details: dose 20 µg/ml
# [7] = Drug accumulation in Candida albicans SC5314 by confocal laser scanning microscopic analysis; type: ADME
# [8] = Drug localization in mitochondria of Candida albicans SC5314 incubated for 30 mins by MitoTracker dye based confocal laser scanning microscopic analysis; type: ADME; details: 0.5 h
# [9] = Drug accumulation in Candida albicans YEM13 expressing efflux pump MdrL at 20 microg/ml incubated for 2 hrs by flow cytometery analysis; type: ADME; details: dose 20 µg/ml
# [10] = system: Cell membrane; experiment: Disruption of membrane integrity in Candida albicans SC5314 at 16 to 32 microg/ml incubated for 1 hr by Sytox green staining based fluorescence method; type: subcellular; details: dose 16-32 µg/ml
# [11] = system: Candida albicans; experiment: Antifungal activity against Candida albicans assessed as inhibition of fungal growth measured after 24 hrs by CLSI based microtiter plate analysis; type: functional
# [12] = Drug accumulation in Candida albicans TOM70-GFP-CAI4 at 20 microg/ml incubated for 30 mins by confocal laser scanning microscopic analysis; type: ADME; details: 0.5 h, dose 20 µg/ml
# [13] = Drug accumulation in Candida albicans YEM15 expressing efflux pump CdrL and Cdr2 at 20 microg/ml incubated for 2 hrs by flow cytometery analysis; type: ADME; details: dose 20 µg/ml
# [14] = system: Candida albicans; experiment: Antifungal activity against clinical isolate fluconazole-resistant Candida albicans DSY296 harbouring TAC1 mutation overexpressing efflux pump CdrL and Cdr2 assessed as inhibition of fungal growth measured after 24 hrs by CLSI based microtiter plate analysis; type: functional
# [15] = system: Cryptococcus neoformans; experiment: Antifungal activity against clinical isolate fluconazole-resistant Cryptococcus neoformans H99 assessed as inhibition of fungal growth measured after 24 hrs by CLSI based microtiter plate analysis; type: functional
# [16] = system: [Candida] auris; experiment: Antifungal activity against clinical isolate fluconazole-resistant Candida auris CBS12776 assessed as inhibition of fungal growth measured after 24 hrs by CLSI based microtiter plate analysis; type: functional; details: Candidozyma auris
# [17] = system: Nakaseomyces glabratus; experiment: Antifungal activity against clinical isolate fluconazole-resistant Candida glabrata CG2 assessed as inhibition of fungal growth measured after 24 hrs by CLSI based microtiter plate analysis; type: functional
# [18] = system: Candida albicans; experiment: Antifungal activity against clinical isolate fluconazole-resistant Candida albicans CA632 assessed as inhibition of fungal growth measured after 24 hrs by CLSI based microtiter plate analysis; type: functional
# [19] = system: Candida albicans; experiment: Antifungal activity against clinical isolate Candida albicans YEM15 overexpressing efflux pump CdrL and Cdr2 assessed as inhibition of fungal growth measured after 24 hrs by CLSI based microtiter plate analysis; type: functional
# [20] = Drug accumulation in wild-type Candida albicans SC5314 at 50 microg/ml incubated for 3 hrs by HPLC analysis; type: ADME; details: dose 50 µg/ml
# [21] = system: Candida albicans; experiment: Antifungal activity against clinical isolate Candida albicans SCMRRIR34MPG2A harbouring MRR1 mutation overexpressing efflux pump MdrL assessed as inhibition of fungal growth measured after 24 hrs by CLSI based microtiter plate analysis; type: functional
# [22] = system: Candida albicans; experiment: Antifungal activity against clinical isolate fluconazole-resistant Candida albicans Gu5 harbouring TAC1 mutation overexpressing efflux pump CdrL and Cdr2 assessed as inhibition of fungal growth measured after 24 hrs by CLSI based microtiter plate analysis; type: functional
# [23] = system: Candida albicans; experiment: Antifungal activity against clinical isolate Candida albicans SCUPC2R14MPG2A harbouring UPC2 mutation overexpressing […] Erg11 assessed as inhibition of fungal growth measured after 24 hrs by CLSI based microtiter plate analysis; type: functional
# [24] = system: [Candida] auris; experiment: Antifungal activity against clinical isolate fluconazole-resistant Candida auris CBS12774 assessed as inhibition of fungal growth measured after 24 hrs by CLSI based microtiter plate analysis; type: functional; details: Candidozyma auris
# [25] = system: Candida albicans; experiment: Antifungal activity against clinical isolate fluconazole-resistant Candida albicans G5 harbouring MRR1 mutation overexpressing MdrL assessed as inhibition of fungal growth measured after 24 hrs by CLSI based microtiter plate analysis; type: functional
# [26] = system: Candida tropicalis; experiment: Antifungal activity against clinical isolate fluconazole-resistant Candida tropicalis CT10 assessed as inhibition of fungal growth measured after 24 hrs by CLSI based microtiter plate analysis; type: functional
# [27] = system: Candida albicans; experiment: Antifungal activity against clinical isolate Candida albicans YEM13 overexpressing efflux pump MdrL assessed as inhibition of fungal growth measured after 24 hrs by CLSI based microtiter plate analysis; type: functional
# [28] = system: Candida albicans; experiment: Drug accumulation in Candida albicans SC5314 measured per 10^8 cells incubated for 3 hrs by HPLC analysis; type: functional, organism-based
# [29] = system: Candida albicans; experiment: Induction of drug resistance in wild-type Candida albicans SC5314 assessed as change in MIC at 0.5 times of MIC measured after 30 passages by broth microdilution method; type: functional
structure (smiles),measurement,setting,value
C=C1C[C@@]23CC[C@H]4[C@@](C)(CCC[C@@]4(C)C(=O)OCCCn4c(CC)[n+](C)c5ccccc54)[C@@H]2CC[C@]1(O)C3.[I-],IC50 at 4 h,[1],> 32 µg/mL
same,MIC80,"[2]; SC5314, read-out: MIC80",16 µg/mL
same,IC50 at 4 h,[3],16.5 µg/mL
same,hemolysis at 1 h,[4],< 2%
same,MIC80,[5],8 µg/mL
CCN(CC)c1ccc2c(-c3ccccc3C(=O)N3CCN(Cc4cn(CCCOc5ccc(C(=N)N)cc5)nn4)CC3)c3ccc(=[N+](CC)CC)cc-3oc2c1.[Cl-],Drug uptake,[6],Active
same,Drug uptake,[7],Active
same,Drug uptake,[8],Active
same,Drug uptake,[9],Active
same,Activity,[10],inactive
same,MIC,[11],> 128 µg/mL
same,hemolysis at 1 h,[4],< 2%
same,Drug uptake,[12],Active
same,Drug uptake,[13],Active
C=C1C[C@@]23CC[C@H]4[C@@](C)(CCC[C@@]4(C)C(=O)OCCCCC[n+]4c(C)cc(N)c5ccccc54)[C@@H]2CC[C@]1(O)C3.[I-],IC50 at 4 h,[1],6.53 µg/mL
same,MIC80,"[2]; SC5314, read-out: MIC80",8 µg/mL
same,IC50 at 4 h,[3],8.34 µg/mL
same,hemolysis at 1 h,[4],< 2%
same,MIC80,[5],4 µg/mL
C=C1C[C@@]23CC[C@H]4[C@@](C)(CCC[C@@]4(C)C(=O)OCCCc4c5[n+](cc6c(OC)c(OC)ccc46)CCc4cc6c(cc4-5)OCO6)[C@@H]2CC[C@]1(O)C3.[I-],IC50 at 4 h,[1],4.79 µg/mL
same,MIC80,"[2]; SC5314, read-out: MIC80",8 µg/mL
same,IC50 at 4 h,[3],1.32 µg/mL
same,hemolysis at 1 h,[4],< 2%
same,MIC80,[5],4 µg/mL
C=CCc1ccc(O)c(-c2ccc(OCCCOc3ccc(C(=N)N)cc3)c(CC=C)c2)c1,MIC80,[14],8 µg/mL
same,MIC80,[15],8 µg/mL
same,MIC80,[16],16 µg/mL
same,MIC80,[17],16 µg/mL
same,MIC80,[18],8 µg/mL
same,MIC80,[19],8 µg/mL
same,Drug uptake,[20],Active
same,MIC80,[21],8 µg/mL
same,MIC,[2],inactive
same,MIC80,"[2]; SC5314, 24 h, read-out: MIC80",8 µg/mL
same,MIC80,[22],8 µg/mL
same,MIC80,[23],8 µg/mL
same,MIC80,[24],8 µg/mL
same,MIC80,[25],8 µg/mL
same,MIC80,[26],16 µg/mL
same,MIC80,[27],8 µg/mL
C=C1C[C@@]23CC[C@H]4[C@@](C)(CCC[C@@]4(C)C(=O)O)[C@@H]2CC[C@]1(O)C3 [STEVIOL],MIC80,"[2]; SC5314, read-out: MIC80",> 256 µg/mL
same,MIC,[5],256 µg/mL
same,MIC80,[5],256 µg/mL
same,Drug uptake,[28],inactive
CC/C(=C(/CC)c1ccc(OCCCOc2ccc(C(=N)N)cc2)cc1)c1ccc(O)cc1,MIC80,[14],4 µg/mL
same,MIC80,[15],8 µg/mL
same,MIC80,[16],4 µg/mL
same,MIC80,[17],8 µg/mL
same,MIC80,[18],4 µg/mL
same,MIC80,[19],4 µg/mL
same,Drug uptake,[20],Active
same,MIC80,[21],4 µg/mL
same,MIC,[2],inactive
same,MIC80,"[2]; SC5314, 24 h, read-out: MIC80",4 µg/mL
same,MIC80,[22],4 µg/mL
same,MIC80,[23],4 µg/mL
same,MIC80,[24],4 µg/mL
same,MIC80,[25],4 µg/mL
same,MIC80,[26],4 µg/mL
same,MIC80,[27],4 µg/mL
N=C(N)c1ccc(OCCCOC(=O)c2ccccc2Nc2cccc(C(F)(F)F)c2)cc1,Drug uptake,[20],Active
same,Activity,[29],Active
same,MIC80,"[2]; SC5314, read-out: MIC80",8 µg/mL
C=C1C[C@@]23CC[C@@H]4[C@](C)(CN)CCC[C@@]4(C)[C@@H]2CC[C@]1(O)C3,MIC80,"[2]; SC5314, read-out: MIC80",> 256 µg/mL
same,MIC80,[5],32 µg/mL
same,Drug uptake,[28],inactive
